The values that follow come from publication PMC8910004, “Hexokinase 2 Inhibition and Biological Effects of BNBZ and Its Derivatives: The Influence of the Number and Arrangement of Hydroxyl Groups” (International Journal of Molecular Sciences, 2022).

For orientation: Kd means the equilibrium constant for the complex coming apart. A low value points to a tighter complex.

For one test, the target named is T1, Hexokinase 2 (Homo sapiens, UniProt P52789).
T1 construct: gene HK2
T1 sequence (P52789 1-917): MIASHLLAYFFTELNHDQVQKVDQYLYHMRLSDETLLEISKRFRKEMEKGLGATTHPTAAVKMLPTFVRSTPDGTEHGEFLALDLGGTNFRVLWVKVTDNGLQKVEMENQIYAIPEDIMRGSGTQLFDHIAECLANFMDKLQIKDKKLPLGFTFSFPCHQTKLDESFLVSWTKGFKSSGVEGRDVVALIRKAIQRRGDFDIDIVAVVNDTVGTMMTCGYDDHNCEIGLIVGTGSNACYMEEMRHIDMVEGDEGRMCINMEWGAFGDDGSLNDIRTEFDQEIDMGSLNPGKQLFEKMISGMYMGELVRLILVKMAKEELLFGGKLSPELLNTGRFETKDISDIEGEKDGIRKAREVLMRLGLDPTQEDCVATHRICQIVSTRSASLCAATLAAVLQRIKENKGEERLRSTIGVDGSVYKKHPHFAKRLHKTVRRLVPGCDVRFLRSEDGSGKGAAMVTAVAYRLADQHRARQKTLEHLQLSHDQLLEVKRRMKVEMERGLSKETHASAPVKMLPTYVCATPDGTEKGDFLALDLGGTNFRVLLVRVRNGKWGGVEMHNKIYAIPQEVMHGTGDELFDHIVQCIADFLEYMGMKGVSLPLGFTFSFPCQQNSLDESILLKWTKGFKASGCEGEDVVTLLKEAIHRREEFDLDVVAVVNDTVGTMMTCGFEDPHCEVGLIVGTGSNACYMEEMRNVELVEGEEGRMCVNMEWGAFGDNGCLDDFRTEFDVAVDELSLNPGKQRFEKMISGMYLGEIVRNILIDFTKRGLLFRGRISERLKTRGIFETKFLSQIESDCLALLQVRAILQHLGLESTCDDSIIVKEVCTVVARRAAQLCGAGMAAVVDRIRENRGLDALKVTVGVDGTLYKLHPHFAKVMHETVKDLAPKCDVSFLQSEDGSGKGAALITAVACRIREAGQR
Description: in vitro HK2 Inhibitor Screening Kit (G6PDH-coupled colorimetric), […], positive control. It is filed as biochemical.

In test [1] the target is T2, Hexokinase 2 (H6-hHK2) (Homo sapiens, UniProt P52789).
T2 construct: gene HK2; N-terminal His6-tagged human HK2, aa 17-917
T2 sequence (P52789 17-917): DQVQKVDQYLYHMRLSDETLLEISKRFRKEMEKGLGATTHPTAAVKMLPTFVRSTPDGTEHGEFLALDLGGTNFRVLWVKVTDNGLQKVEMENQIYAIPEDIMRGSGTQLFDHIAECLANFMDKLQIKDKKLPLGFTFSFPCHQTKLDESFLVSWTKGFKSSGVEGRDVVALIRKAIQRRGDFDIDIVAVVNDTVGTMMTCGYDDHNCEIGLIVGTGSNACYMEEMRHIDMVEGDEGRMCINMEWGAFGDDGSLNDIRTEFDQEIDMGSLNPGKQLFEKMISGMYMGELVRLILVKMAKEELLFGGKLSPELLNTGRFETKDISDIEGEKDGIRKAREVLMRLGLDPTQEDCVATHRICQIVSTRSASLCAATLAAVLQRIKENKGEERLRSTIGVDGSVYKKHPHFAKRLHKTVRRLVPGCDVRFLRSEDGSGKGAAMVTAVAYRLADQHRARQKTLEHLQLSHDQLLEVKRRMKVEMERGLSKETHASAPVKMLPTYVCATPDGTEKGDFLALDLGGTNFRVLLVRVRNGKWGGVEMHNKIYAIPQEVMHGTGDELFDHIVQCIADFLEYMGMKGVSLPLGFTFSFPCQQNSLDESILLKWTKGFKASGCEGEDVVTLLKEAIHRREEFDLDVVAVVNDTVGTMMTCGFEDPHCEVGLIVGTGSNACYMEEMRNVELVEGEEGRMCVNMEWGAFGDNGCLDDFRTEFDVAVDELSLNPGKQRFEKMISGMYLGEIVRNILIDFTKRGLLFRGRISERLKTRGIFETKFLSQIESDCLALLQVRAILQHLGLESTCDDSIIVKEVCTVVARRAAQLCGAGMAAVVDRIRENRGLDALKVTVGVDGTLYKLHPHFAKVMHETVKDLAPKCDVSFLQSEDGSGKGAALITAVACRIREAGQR
The test can be described thus: microscale thermophoresis (RED-Tris-NTA labelled His6-HK2); also inhibits isolated HK2 in kit assay. The test is classed as binding. For orientation: In MST a laser heats a spot of the sample, and binding alters the fluorescence response.

The target in test [2] is T2, Hexokinase 2 (H6-hHK2). The test can be described thus: microscale thermophoresis (RED-Tris-NTA labelled His6-HK2). The test is classed as binding.

For `OC[C@H]1OC(O)C[C@@H](O)[C@@H]1O` (stereo partly shown) [2DG, 2-deoxyglucose], the activity at 5 µM on Hexokinase 2 is 9.9 ± 0.5%. The same measure, in the same setting: as for `O=C(O)C(=O)CBr` [3BP, 3-bromopyruvate], the figure is 2.5 ± 0.4%.

As to `O=C(N/N=C/c1ccc(O)c(O)c1O)c1ccc([N+](=O)[O-])cc1` [2a, (E)-N′-(2,3,4-trihydroxybenzylidene)-4-nitrobenzohydrazide], on Hexokinase 2 (H6-hHK2) [1], the Kd is 8.83 to 11 µM. On Hexokinase 2 (H6-hHK2) [2], `O=C(N/N=C/c1ccc(O)cc1O)c1ccc([N+](=O)[O-])cc1` [2b, (E)-N′-(2,4-dihydroxybenzylidene)-4-nitrobenzohydrazide] gave an equilibrium dissociation constant (Kd) of 58.9 µM.
